Paper PMC12662848 (Cancer Chemotherapy and Pharmacology, 2025)

Legend:
[1] = cited from earlier work
[2] = system: CYP3A4; conditions: a sensitive CYP3A4 substrate; cited from earlier work
[3] = system: AR−/lo LAPC9-CRPC; parameters: method as in PMID 30190514; conditions: single agent; cited from earlier work
[4] = Enzalutamide and N-desmethyl enzalutamide trough plasma PK (LC–MS/MS); conditions: for ENZAdm Cmin D1: 24 h sample relative to Cmin D0; for ENZAdm Cmin D1 / ENZAdm Cmin D0: geometric mean (geometric SD); for ENZAdm Cmin D0: pre 1st venetoclax sample on day 1
Protocol: Additional samples were collected prior to dosing on days 8, 15, 21, and 57 (Fig. 1A). Samples were centrifuged at approximately 1,000 × g, and plasma was stored at −70 °C or colder until analysis.
Plasma PK parameters were derived from the data by non-compartmental methods with WinNonlin (Certara, Princeton, NJ). Statistical analyses for PK parameter values were performed using SPSS 27.0 for Windows (SPSS Inc., Chicago, IL). Within patient variability in Cmin was calculated from the day 8 through day 57 data across doses by calculating 100 × the square root of the mean square within groups obtained after ANOVA of log-transformed values of these parameters with subject as a factor.

Structure (SMILES)	Enzalutamide concentration in previous reports [1]	Increase in oral clearance of midazolam [2]	Growth of AR−/lo LAPC9-CRPC [3]	Intrapatient variability in Cmin ([4]; male, human, in vivo)	ENZA Cmin D1 ([4]; male, human, in vivo, 24 h)	N-desmethyl enzalutamide concentration in previous reports [1]	Intrapatient variability in Cmin ([4]; N-desmethyl enzalutamide, from day 1 through 57)	ENZAdm Cmin D1 ([4]; venetoclax 400 mg (N=3))	ENZAdm Cmin D0 ([4]; venetoclax 400 mg (N=3))	ENZAdm Cmin D1 ([4]; venetoclax 600 mg (N=3))	ENZAdm Cmin D0 ([4]; venetoclax 600 mg (N=3))	ENZAdm Cmin D1 ([4]; venetoclax 800 mg (N=4))
CNC(=O)c1ccc(N2C(=S)N(c3ccc(C#N)c(C(F)(F)F)c3)C(=O)C2(C)C)cc1F [enzalutamide]	11.4 µg/L	sevenfold	not	7.0 %CV	12.4 (1.19) µg/mL							
CC1(C)C(=O)N(c2ccc(C#N)c(C(F)(F)F)c2)C(=S)N1c1ccc(C(N)=O)c(F)c1 [N-desmethyl enzalutamide]						13 µg/L	10 %CV	7.59 (1.34) µg/mL	7.04 (1.31) µg/mL	15.1 (1.12) µg/mL	15.2 (1.07) µg/mL	14.2 (1.21) µg/mL
